From patent US7056929B2, “Benzo[b]pyrano[3,2-h]acridin-7-one compounds” (Les Laboratoires Servier, priority 2001, dated 2006)
Read-outs that look alike come from different tables or passages of the source. Marks after values point to notes of the source that are not given here.

How the values were obtained:
Murine leukaemia L1210 [1] = experiment: In vitro cytotoxicity on murine leukaemia L1210 (Microculture Tetrazolium Assay)
Protocol: (§2) Murine leukaemia L1210 was used in vitro. The cells are cultured in RPMI 1640 complete culture medium containing 10% foetal calf serum, 2 mM glutamine, 50 units/ml of penicillin, 50 μg/ml of streptomycin and 10 mM Hepes, pH: 7.4. The cells are distributed on microplates and exposed to the cytotoxic compounds for 4 doubling periods, or 48 hours. The number of viable cells is then quantified by means of a colorimetric assay, the Microculture Tetrazolium Assay (J. Carmichael et al., Cancer Res., 47, 936–942, (1987)). The results are expressed as IC50, the concentration of cytotoxic agent which inhibits the proliferation of the treated cells by 50%.

[2] = test system: Human KB-3-1 (bucal epidermoïde carcinoma) cell; experiment: In vitro cytotoxicity on human KB-3-1 cells (procedure of Example 27)
Protocol: as §2

[3] = test system: C38 adenocarcinoma of the colon; experiment: Anti-tumour activity with respect to C38 adenocarcinoma of the colon in mice; type: in vivo; details: for T/C (tumor growth), C38: Table 3; for anti-tumour activity (% T/C): C38 s.c. in B6D2F1 mice, tumour volume
Protocol: Tumour fragments of C38 adenocarcinoma of the colon weighing approximately 30 mg were implanted under the skin of B6D2F1 mice (Iffa Credo, France) on day 0.
After growth of the tumour, the mice were divided into control (18 animals) and treated (6 or 7 animals) groups, which were homogeneous with respect to tumour size. The products were administered by the i.v. route once per week for 3 weeks (on days 10, 17 and 24), at their Maximum Tolerated Dose (MTD), MTD/2 and MTD/4. The tumours were measured twice a week and the tumour volumes were calculated according to the following formula: volume (mm^3)=length (mm)×breadth (mm^2)/2. The anti-tumour activity is expressed as % T/C:
[formula] V0 and Vt being the initial volume of the tumour and its volume at measurement time t, respectively.
The optimum dose is the dose giving the lowest T/C value without toxicity (early death or weight loss greater than 20%).
The procedure used in the anti-tumour activity with respect to C38 adenocarcinoma is the same as the procedure described in the present application at Example 28.

[4] = test system: human A549 non-small cell lung carcinoma; experiment: Anti-tumour activity on A549 lung carcinoma in nude mice; type: in vivo; details: A549 in pleural space of nude mice, median survival time
Protocol: (§1) The anti-tumour activity of the compounds against the human A549 non-small cell lung carcinoma was evaluated essentially as described (Kraus-Berthier, L., Jan, M., Guilbaud, N., Naze, M., Pierré, A., and Atassi, G. Histology and sensitivity to anticancer drugs of two human non-small cell lung carcinomas implanted in the pleural cavity of nude mice. Clinical Cancer Res., 6, 297–304, 2000). Briefly, 10^6 A549 cells were implanted through the chest wall into the left pleural space of nude mice in a volume of 100 μl. Compounds were administered i.v. at three doses on days 14 and 24 after tumor graft. Animal mortality was checked daily and the anti-tumour activity was expressed as T/C %=(median survival time of treated group/median survival time of control group)×100. Results given in table 3 are the highest T/C values obtained at the maximum non-toxic dose, i.e. the optimal dose.

Murine leukaemia L1210 [5] = test system: Murine leukaemia L1210
Protocol: as §2

[6] = test system: Human KB-3-1 (bucal epidermoïde carcinoma) cell
Protocol: as §2

P388 (murine leukaemia) = experiment: Anti-tumour activity with respect to P388 leukaemia in mice; type: in vivo; details: P388 i.p. in B6D2F1 mice, products i.v. on day 1
Protocol: Line P388 (murine leukaemia) was supplied by the National Cancer Institute (Frederick, USA). The tumour cells (10^6 cells) were inoculated on day 0 into the peritoneal cavity of female B6D2F1 mice (Iffa Credo, France). Six mice weighing from 18 to 20 g were used in each test group. The products were administered by the intravenous route on day 1. The anti-tumour activity is expressed as % T/C: […]

[7] = test system: human IGROV1 ovarian carcinoma; experiment: Anti-tumour activity on IGROV1 ovarian carcinoma in nude mice; type: in vivo; details: IGROV1 i.p. in nude mice, 12.5 mg/kg i.v. days 4 and 14, optimal dose; median survival time
Protocol: as §1
The anti-tumour activity of the compounds against the human IGROV1 ovarian carcinoma was evaluated essentially as described (Burbridge, M. F., Kraus-Berthier, L., Naze, M., Pierré, A., Atassi, G. and Guilbaud, N. Biological and pharmacological characterization of three models of human ovarian carcinoma established in nude mice: use of the CA125 tumor marker to predict antitumor activity. Int. J. Oncol., 15, 1155–1162, 1999). […] The anti-tumour activity was evaluated as described above for A549 lung carcinoma.

[8] = Mus musculus, L1210, read-out: IC50 (μM), Cytotoxicity on Murine L 1210 cells
[9] = Homo sapiens, KB 3-1, read-out: IC50 (μM), Cytotoxicity on Human KB-3-1 (bucal epidermoïde carcinoma) cell

CCN(CC)C(=O)O[C@@H]1c2c(cc(OC)c3c(=O)c4cc5ccccc5cc4n(C)c23)OC(C)(C)[C@@H]1OC(=O)N(CC)CC (racemic) [Example 23, (±)-cis-1-{[(Diethylamino)carbonyl]oxy}-6-methoxy-3,3,14-trimethyl-7-oxo-2,3,7,14-tetrahydro-1H-benzo[b]pyrano[3,2-h]acridin-2-yl diethylcarbamate]
IC50 (Murine leukaemia L1210 [1]; [8]): 0.9 µM

Cn1c2cc3ccccc3cc2c(=O)c2c(OCCO)cc3c(c21)C=CC(C)(C)O3 [Example 1, 6(2-Hydroxyethoxy)-3,3,14-trimethyl-3,14-dihydro-7H-benzo[b]-pyrano[3,2-h]acridin-7-one]
IC50 [2, 9]: 0.5 µM

COc1cc2c(c3c1c(=O)c1cc4ccccc4cc1n3C)[C@H](OC(=O)N(C)C)[C@H](OC(=O)N(C)C)C(C)(C)O2 [Example 11, (1S,2S)-1-{[(Dimethylamino)carbonyl]oxy}-6-methoxy-3,3,14-trimethyl-7-oxo-2,3,7,14-tetrahydro-1H-benzo[b]pyrano[3,2-h]acridin-2-yl dimethylcarbamate]
T/C (tumor growth), C38 ([3]; C38, dose 25 mg/kg i.v.): 41%^a | anti-tumour activity (% T/C) ([3]; i.v. days 10, 17 and 24, optimum dose of 25 mg/kg): 41% | IC50 [2, 9]: 0.4 µM | IC50 (Murine leukaemia L1210 [1]; Mus musculus, L1210, 48 h): 0.78 µM | IC50 (Murine leukaemia L1210 [1]; [8]): 0.8 µM

(±)-cis-1-Hydroxy-6-methoxy-2-pentenoyloxy-3,3,14-trimethyl-2,3,7,14-tetrahydro-1H-benzo[b]pyrano[3,2-h]acridin-7-one [Example 8]
T/C (tumor growth), C38 ([3]; C38, dose 50 mg/kg i.v.): 15%^a | T/C (survival), A549 ([4]; 25 mg/kg i.v. days 14 and 24, optimal dose): 340%^b | IC50 (Murine leukaemia L1210 [5]): 0.9 µM | IC50 [6]: 0.1 µM

COc1cc2c(c3c1c(=O)c1ccccc1n3C)C=CC(C)(C)O2 [acronycine, reference compound]
T/C (P388 (murine leukaemia)): only marginally active | anti-tumour activity (% T/C) ([3]; i.v. days 10, 17 and 24, optimum dose of 100 mg/kg): 27%

(±)-cis-1,2-Dipentenoyloxy-6-methoxy-3,3,14-trimethyl-2,3,7,14-tetrahydro-1H-benzo[b]pyrano[3,2-h]acridin-7-one [Example 7]
T/C (tumor growth), C38 ([3]; C38, dose 25 mg/kg i.v.): 12%^a | anti-tumour activity (% T/C) ([3]; i.v. days 10, 17 and 24, optimum dose of 12.5 mg/kg): 30% | T/C (survival), A549 ([4]; 12.5 mg/kg i.v. days 14 and 24, optimal dose): 218%^b | T/C (survival), IGROV1 [7]: 148%^b | IC50 ([2]; read-out: IC50 (μM), Cytotoxicity on Human KB-3-1 (bucal epidermoïde carcinoma) cell, KB-3-1 cells, procedure of Example 27, Table 2): 0.14 µM | IC50 (Murine leukaemia L1210 [1]; L1210 cells, exposure 4 doubling periods or 48 hours): 0.52 µM | IC50 (Murine leukaemia L1210 [1]; read-out: IC50 (μM), Cytotoxicity on Murine L 1210 cells, L1210 cells, procedure of Example 27, Table 1): 0.5 µM
